Results on 12 compounds are retold here after patent US20260092071A1, “COMPOUNDS AND COMPOSITIONS AS SMARCA2/4 DEGRADERS AND USES THEREOF” (REGENTS OF THE UNIVERSITY OF MICHIGAN, priority 2022, published 2026).

The target of one assay is SMARCA2 (Homo sapiens, UniProt P51531). Kind of assay: HiBit assay in engineered HT1080 CRISPR knock-in cell, 6 hrs (B series), SMARCA2. Particulars: 6 hrs incubation; for DC50: HT1080 CRISPR knock-in cells, read-out: SMARC A2 HT1080 HiBit DC50; for Dmax: HT-1080, HT1080 CRISPR knock-in cells, read-out: SMARC A2 HT1080 HiBit Dmax (%). In kind it is cell-based. The method, boiled down:
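Using a 6 hr treatment window at 37° C and 5% CO2, tagged HT1080 knock-in cells were exposed to test compounds with DMSO vehicle held at 0.1%. Signal came from lytic LgBiT/substrate reagent added after incubation, with control wells lacking LgBiT, and was read as luminescence.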
For orientation: HiBiT is a short tag that completes a luciferase, so light tracks the accessible tagged protein.

For the next assay, the target named is SMARCA4 (Homo sapiens, UniProt P51532). As to the kind of experiment: HiBit assay in engineered HT1080 CRISPR knock-in cell, 6 hrs (B series), SMARCA4. The assay is classed as cell-based. Particulars: 6 hrs incubation; for DC50: HT1080 CRISPR knock-in cells, read-out: SMARC A4 HT1080 HiBit DC50; for Dmax: HT-1080, HT1080 CRISPR knock-in cells, read-out: SMARC A4 HT1080 HiBit Dmax(%). Put shortly: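 Engineered HT1080 knock-in cells, 2000 cells/well, 6 hrs compound exposure, 37° C/5% CO2, 0.1% DMSO final. Lytic detection: LgBiT 1:100 plus HiBiT substrate 1:50 in lytic buffer, 10 min shake at RT, luminescence read.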
Sequence of SMARCA4 (P51532 whole entry): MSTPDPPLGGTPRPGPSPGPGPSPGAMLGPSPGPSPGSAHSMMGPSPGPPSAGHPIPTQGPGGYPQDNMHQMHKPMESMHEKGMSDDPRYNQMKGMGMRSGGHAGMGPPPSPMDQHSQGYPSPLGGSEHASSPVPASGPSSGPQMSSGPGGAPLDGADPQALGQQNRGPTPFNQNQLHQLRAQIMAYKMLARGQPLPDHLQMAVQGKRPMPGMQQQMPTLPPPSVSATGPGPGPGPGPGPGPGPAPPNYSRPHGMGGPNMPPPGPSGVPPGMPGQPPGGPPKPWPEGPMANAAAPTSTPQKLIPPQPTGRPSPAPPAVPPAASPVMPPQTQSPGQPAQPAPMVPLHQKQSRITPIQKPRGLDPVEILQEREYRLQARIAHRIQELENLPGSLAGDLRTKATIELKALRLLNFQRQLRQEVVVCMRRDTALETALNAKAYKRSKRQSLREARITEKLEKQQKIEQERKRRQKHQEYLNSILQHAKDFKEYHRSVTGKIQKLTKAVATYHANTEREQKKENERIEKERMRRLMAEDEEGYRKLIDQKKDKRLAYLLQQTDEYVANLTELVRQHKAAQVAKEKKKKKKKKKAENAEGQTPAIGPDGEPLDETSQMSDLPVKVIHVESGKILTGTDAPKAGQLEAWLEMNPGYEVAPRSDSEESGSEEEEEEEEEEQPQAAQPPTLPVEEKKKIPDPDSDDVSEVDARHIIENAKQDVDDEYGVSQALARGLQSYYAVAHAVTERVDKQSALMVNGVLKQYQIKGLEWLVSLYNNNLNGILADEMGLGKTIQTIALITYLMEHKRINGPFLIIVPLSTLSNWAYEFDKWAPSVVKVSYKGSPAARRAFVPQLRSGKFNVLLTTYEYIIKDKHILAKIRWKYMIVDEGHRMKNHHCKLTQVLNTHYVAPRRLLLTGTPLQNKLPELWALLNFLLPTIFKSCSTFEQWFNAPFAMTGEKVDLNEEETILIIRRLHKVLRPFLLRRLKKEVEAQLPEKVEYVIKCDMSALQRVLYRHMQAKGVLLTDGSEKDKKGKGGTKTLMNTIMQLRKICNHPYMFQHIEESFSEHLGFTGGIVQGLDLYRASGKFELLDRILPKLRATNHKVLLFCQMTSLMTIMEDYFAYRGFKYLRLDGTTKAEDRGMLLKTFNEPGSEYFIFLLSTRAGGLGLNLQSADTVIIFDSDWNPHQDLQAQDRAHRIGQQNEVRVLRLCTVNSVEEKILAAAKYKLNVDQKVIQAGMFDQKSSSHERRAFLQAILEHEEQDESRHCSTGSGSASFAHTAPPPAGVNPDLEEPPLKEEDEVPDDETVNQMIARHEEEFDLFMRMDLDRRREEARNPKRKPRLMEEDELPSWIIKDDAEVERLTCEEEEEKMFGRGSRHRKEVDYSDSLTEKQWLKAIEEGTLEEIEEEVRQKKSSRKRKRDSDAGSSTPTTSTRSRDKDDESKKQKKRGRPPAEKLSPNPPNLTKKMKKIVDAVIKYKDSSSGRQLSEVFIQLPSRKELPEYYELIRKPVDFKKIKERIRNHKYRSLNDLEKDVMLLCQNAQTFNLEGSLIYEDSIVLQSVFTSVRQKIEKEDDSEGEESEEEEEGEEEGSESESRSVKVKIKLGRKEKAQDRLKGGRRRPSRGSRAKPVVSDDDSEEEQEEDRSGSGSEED

Sequence of SMARCA2 (P51531 whole entry): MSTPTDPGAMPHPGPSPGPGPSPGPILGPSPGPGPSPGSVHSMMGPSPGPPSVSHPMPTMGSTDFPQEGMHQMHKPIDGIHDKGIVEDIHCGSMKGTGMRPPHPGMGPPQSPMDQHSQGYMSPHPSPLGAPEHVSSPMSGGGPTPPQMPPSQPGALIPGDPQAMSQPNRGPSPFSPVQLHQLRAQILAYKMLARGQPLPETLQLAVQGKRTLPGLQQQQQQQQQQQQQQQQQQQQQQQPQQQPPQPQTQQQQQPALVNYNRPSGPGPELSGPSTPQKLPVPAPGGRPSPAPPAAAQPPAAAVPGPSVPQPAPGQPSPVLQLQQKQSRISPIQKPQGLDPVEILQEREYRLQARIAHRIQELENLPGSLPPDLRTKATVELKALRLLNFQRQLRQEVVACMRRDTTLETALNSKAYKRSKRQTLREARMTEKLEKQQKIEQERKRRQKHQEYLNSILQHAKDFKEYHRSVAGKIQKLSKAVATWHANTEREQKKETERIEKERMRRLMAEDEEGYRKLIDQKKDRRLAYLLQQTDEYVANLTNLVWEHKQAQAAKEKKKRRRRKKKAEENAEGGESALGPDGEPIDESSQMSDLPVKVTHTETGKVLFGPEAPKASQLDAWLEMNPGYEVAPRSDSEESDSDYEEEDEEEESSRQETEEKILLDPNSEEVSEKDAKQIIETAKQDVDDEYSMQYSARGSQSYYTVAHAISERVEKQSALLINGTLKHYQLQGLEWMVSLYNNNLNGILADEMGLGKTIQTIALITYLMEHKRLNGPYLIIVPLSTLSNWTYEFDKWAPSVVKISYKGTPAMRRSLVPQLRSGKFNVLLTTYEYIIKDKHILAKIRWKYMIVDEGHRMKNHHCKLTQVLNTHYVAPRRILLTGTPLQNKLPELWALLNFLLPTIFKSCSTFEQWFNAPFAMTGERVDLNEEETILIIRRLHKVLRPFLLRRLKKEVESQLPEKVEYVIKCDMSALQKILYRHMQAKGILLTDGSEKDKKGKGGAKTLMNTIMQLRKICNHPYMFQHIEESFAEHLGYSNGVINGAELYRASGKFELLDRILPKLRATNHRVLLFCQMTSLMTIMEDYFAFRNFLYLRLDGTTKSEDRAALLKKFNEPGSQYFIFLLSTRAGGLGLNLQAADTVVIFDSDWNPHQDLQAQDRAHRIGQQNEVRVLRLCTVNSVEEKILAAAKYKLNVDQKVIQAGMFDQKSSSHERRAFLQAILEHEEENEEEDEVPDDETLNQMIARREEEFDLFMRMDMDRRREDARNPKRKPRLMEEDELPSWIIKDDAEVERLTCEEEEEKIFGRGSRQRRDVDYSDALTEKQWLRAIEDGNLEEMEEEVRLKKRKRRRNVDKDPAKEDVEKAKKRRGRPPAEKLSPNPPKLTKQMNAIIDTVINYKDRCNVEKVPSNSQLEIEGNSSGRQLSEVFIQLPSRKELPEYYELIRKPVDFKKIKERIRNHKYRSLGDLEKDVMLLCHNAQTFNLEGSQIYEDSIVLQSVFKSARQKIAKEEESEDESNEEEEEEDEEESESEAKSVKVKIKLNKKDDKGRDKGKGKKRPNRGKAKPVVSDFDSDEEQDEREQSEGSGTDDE

For the compound `Cc1ncsc1-c1ccc([C@H](C)NC(=O)[C@@H]2C[C@@H](O)CN2C(=O)[C@@H](c2cc(OCC3CCC(N4CCC(c5cccc6c5C(C)(C)c5nc(=O)c7c(Cl)cccc7n5-6)CC4)CC3)no2)C(C)C)cc1` (stereo partly drawn) [Compound B100, (2S,4R)-1-((R)-2-(3-((4-(4-(4-chloro-7,7-dimethyl-5-oxo-5,7-dihydroindolo[1,2-a]quinazolin-8-yl)piperidin-1-yl)cyclohexyl)methoxy)isoxazol-5-yl)-3-methylbutanoyl)-4-hydroxy-N-((S)-1-(4-(4-methylthiazol-5-yl)phenyl)ethyl)pyrrolidine-2-carboxamide], on SMARCA2, the DC50 is < 100 nM and the Dmax lay within 70 to 90%. Further, at SMARCA4, the DC50 was < 100 nM and the Dmax was < 50%.

Turning to `Cc1ncsc1-c1ccc([C@H](C)NC(=O)[C@@H]2C[C@@H](O)CN2C(=O)[C@@H](NC(=O)CCn2cc(-c3ccc4c(c3)C(C)(C)c3nc(=O)c5c(Cl)cccc5n3-4)cn2)C(C)(C)C)cc1` [Compound B101, (2S,4R)-1-((S)-2-(3-(4-(4-chloro-7,7-dimethyl-5-oxo-5,7-dihydroindolo[1,2-a]quinazolin-9-yl)-1H-pyrazol-1-yl)propanamido)-3,3-dimethylbutanoyl)-4-hydroxy-N-((S)-1-(4-(4-methylthiazol-5-yl)phenyl)ethyl)pyrrolidine-2-carboxamide], the DC50 on SMARCA2 and on SMARCA4 was > 1000 nM each time. Besides, the Dmax at SMARCA2 and on SMARCA4 was < 50% in each case.

Turning to `C#Cc1ccc([C@H](CN2CCOCC2)NC(=O)[C@@H]2C[C@@H](O)CN2C(=O)[C@@H](n2cc([C@H]3CC[C@H](CN4CCC(c5ccc6c(c5)-n5c(nc(=O)c7c(Cl)cccc75)C6(C)C)CC4)CC3)nn2)C(C)(C)C)cc1` [Compound B102, (2S,4R)-1-((S)-2-(4-((1r,4S)-4-((4-(4-chloro-7,7-dimethyl-5-oxo-5,7-dihydroindolo[1,2-a]quinazolin-10-yl)piperidin-1-yl)methyl)cyclohexyl)-1H-1,2,3-triazol-1-yl)-3,3-dimethylbutanoyl)-N—((R)-1-(4-ethynylphenyl)-2-morpholinoethyl)-4-hydroxypyrrolidine-2-carboxamide], the DC50 on SMARCA2 and at SMARCA4 was < 100 nM throughout. Moreover, the values for the Dmax at SMARCA2 and on SMARCA4 were > 90% and 70 to 90%, respectively.

For the compound `Cc1cc(C(C(=O)N2C[C@H](O)C[C@H]2C(=O)N[C@@H](C)c2ccc(-c3scnc3C#CCOCCCN3CCC(c4ccc5c(c4)-n4c(nc(=O)c6c(Cl)cccc64)C5(C)C)CC3)cc2)C(C)C)on1` (stereo partly drawn) [Compound B103, (2S,4R)-N-((S)-1-(4-(4-(3-(3-(4-(4-chloro-7,7-dimethyl-5-oxo-5,7-dihydroindolo[1,2-a]quinazolin-10-yl)piperidin-1-yl)propoxy)prop-1-yn-1-yl)thiazol-5-yl)phenyl)ethyl)-4-hydroxy-1-(3-methyl-2-(3-methylisoxazol-5-yl)butanoyl)pyrrolidine-2-carboxamide], on SMARCA2, the DC50 is < 100 nM and the Dmax is > 90%. At SMARCA4, the DC50 is < 100 nM and the Dmax is > 90%.

Turning to `Cc1cc(C(C(=O)N2C[C@H](O)C[C@H]2C(=O)N[C@@H](C)c2ccc(-c3scnc3C#CCOCCOCCN3CCC(c4ccc5c(c4)-n4c(nc(=O)c6c(Cl)cccc64)C5(C)C)CC3)cc2)C(C)C)on1` (stereo partly drawn) [Compound B104, (2S,4R)—N—((S)-1-(4-(4-(3-(2-(2-(4-(4-chloro-7,7-dimethyl-5-oxo-5,7-dihydroindolo[1,2-a]quinazolin-10-yl)piperidin-1-yl)ethoxy)ethoxy)prop-1-yn-1-yl)thiazol-5-yl)phenyl)ethyl)-4-hydroxy-1-(3-methyl-2-(3-methylisoxazol-5-yl)butanoyl)pyrrolidine-2-carboxamide], at SMARCA2, the DC50 is < 100 nM and the Dmax is > 90%. At SMARCA4, the DC50 lay within 100 to 500 nM and the Dmax lay within 70 to 90%.

Consider `Cc1ncsc1-c1ccc([C@H](CN2CCOCC2)NC(=O)[C@@H]2C[C@@H](O)CN2C(=O)[C@@H](n2cc([C@H]3CC[C@H](CN4CCC(c5ccc6c(c5)-n5c(nc(=O)c7c(Br)cccc75)C6(C)C)CC4)CC3)nn2)C(C)(C)C)cc1` [Compound B105, (2S,4R)-1-((S)-2-(4-((1r,4S)-4-((4-(4-bromo-7,7-dimethyl-5-oxo-5,7-dihydroindolo[1,2-a]quinazolin-10-yl)piperidin-1-yl)methyl)cyclohexyl)-1H-1,2,3-triazol-1-yl)-3,3-dimethylbutanoyl)-4-hydroxy-N—((R)-1-(4-(4-methylthiazol-5-yl)phenyl)-2-morpholinoethyl)pyrrolidine-2-carboxamide], for which, on SMARCA2, the DC50 was < 100 nM and the Dmax is > 90%. Besides, on SMARCA4, the DC50 was in the range of 100 to 500 nM and the Dmax lay within 70 to 90%.

As for `Cc1ncsc1-c1ccc([C@H](CN2CCOCC2)NC(=O)[C@@H]2C[C@@H](O)CN2C(=O)[C@H](C(C)C)n2cc([C@H]3CC[C@H](CN4CCC(c5ccc6c(c5)-n5c(nc(=O)c7c(Br)cccc75)C65CCCCC5)CC4)CC3)nn2)cc1` [Compound B106, (2S,4R)-1-((S)-2-(4-((1r,4S)-4-((4-(4′-bromo-5′-oxo-5′H-spiro[cyclohexane-1,7′-indolo[1,2-a]quinazolin]-10′-yl)piperidin-1-yl)methyl)cyclohexyl)-1H-1,2,3-triazol-1-yl)-3-methylbutanoyl)-4-hydroxy-N-((R)-1-(4-(4-methylthiazol-5-yl)phenyl)-2-morpholinoethyl)pyrrolidine-2-carboxamide], at SMARCA2, the DC50 is < 100 nM and the Dmax is > 90%. On SMARCA4, the DC50 was < 100 nM and the Dmax is > 90%.

For the compound `Cc1ncsc1-c1ccc([C@H](C)NC(=O)[C@@H]2C[C@@H](O)CN2C(=O)[C@H](C(C)C)n2cc([C@H]3CC[C@H](CN4CCC(c5cccc6c5C(C)(C)c5nc(=O)c7c(Cl)cccc7n5-6)CC4)CC3)nn2)cc1` [Compound B107, (2S,4R)-1-((S)-2-(4-((1r,4S)-4-((4-(4-chloro-7,7-dimethyl-5-oxo-5,7-dihydroindolo[1,2-a]quinazolin-8-yl)piperidin-1-yl)methyl)cyclohexyl)-1H-1,2,3-triazol-1-yl)-3-methylbutanoyl)-4-hydroxy-N-((S)-1-(4-(4-methylthiazol-5-yl)phenyl)ethyl)pyrrolidine-2-carboxamide], on SMARCA2, the DC50 is < 100 nM and the Dmax is > 90%. In addition, on SMARCA4, the DC50 was < 100 nM and the Dmax was > 90%.

As to `C[C@H](NC(=O)[C@@H]1C[C@@H](O)CN1C(=O)[C@@H](n1cc(C2CCC(CN3CCC(c4ccc5c(c4)-n4c(nc(=O)c6c(Cl)cccc64)C54CCCCC4)CC3)CC2)nn1)C(C)(C)C)c1ccc(-c2scnc2CCCN2CCOCC2)cc1` (stereo partly drawn) [Compound B108, (2S,4R)-1-((S)-2-(4-((11,4S)-4-((4-(4′-chloro-5′-oxo-5′H-spiro[cyclohexane-1,7′-indolo[1,2-a]quinazolin]-10′-yl)piperidin-1-yl)methyl)cyclohexyl)-1H-1,2,3-triazol-1-yl)-3,3-dimethylbutanoyl)-4-hydroxy-N-((S)-1-(4-(4-(3-morpholinopropyl)thiazol-5-yl)phenyl)ethyl)pyrrolidine-2-carboxamide], on SMARCA2, the DC50 is 100 to 500 nM and the Dmax is > 90%. On SMARCA4, the DC50 fell in the range of 100 to 500 nM and the Dmax lay in the range of 50 to 69%.

Turning to `Cc1ncsc1-c1ccc([C@H](CN2CCOCC2)NC(=O)[C@@H]2C[C@@H](O)CN2C(=O)[C@H](c2cc(N3CCC(c4ccc5c(c4)C(C)(C)c4nc(=O)c6c(Cl)cccc6n4-5)CC3)no2)C(C)C)cc1` [Compound B109, (2S,4R)-1-(2-(3-(4-(4-chloro-7,7-dimethyl-5-oxo-5,7-dihydroindolo[1,2-a]quinazolin-9-yl)piperidin-1-yl)isoxazol-5-yl)-3-methylbutanoyl)-4-hydroxy-N—((R)-1-(4-(4-methylthiazol-5-yl)phenyl)-2-morpholinoethyl)pyrrolidine-2-carboxamide], at SMARCA2, the DC50 is < 100 nM and the Dmax was > 90%. In addition, on SMARCA4, the DC50 lay within 100 to 500 nM and the Dmax lay within 50 to 69%.

For the compound `Cc1ncsc1-c1ccc([C@H](CN2CCOCC2)NC(=O)[C@@H]2C[C@@H](O)CN2C(=O)[C@@H](c2cc(N3CCC(c4ccc5c(c4)C(C)(C)c4nc(=O)c6c(Cl)cccc6n4-5)CC3)no2)C(C)C)cc1` [Compound B110, (2S,4R)-1-(2-(3-(4-(4-chloro-7,7-dimethyl-5-oxo-5,7-dihydroindolo[1,2-a]quinazolin-9-yl)piperidin-1-yl)isoxazol-5-yl)-3-methylbutanoyl)-4-hydroxy-N—((R)-1-(4-(4-methylthiazol-5-yl)phenyl)-2-morpholinoethyl)pyrrolidine-2-carboxamide], on SMARCA2, the DC50 was < 100 nM and the Dmax is > 90%. For the same compound, at SMARCA4, the DC50 was < 100 nM and the Dmax lay within 70 to 90%.

With `Cc1ncsc1-c1ccc([C@H](C)NC(=O)[C@@H]2C[C@@H](O)CN2C(=O)[C@@H](c2cc(N3CCC(CN4CCN(c5ccc6c(c5)-n5c(nc(=O)c7c(Cl)cccc75)C6(C)C)CC4)CC3)no2)C(C)C)cc1` [Compound B111, (2S,4R)-1-((R)-2-(3-(4-((4-(4-chloro-7,7-dimethyl-5-oxo-5,7-dihydroindolo[1,2-a]quinazolin-10-yl)piperazin-1-yl)methyl)piperidin-1-yl)isoxazol-5-yl)-3-methylbutanoyl)-4-hydroxy-N-((S)-1-(4-(4-methylthiazol-5-yl)phenyl)ethyl)pyrrolidine-2-carboxamide], the DC50 at SMARCA2 and on SMARCA4 was < 100 nM in each case. Further, the Dmax is > 90% on SMARCA2 and 50 to 69% on SMARCA4.
